The subject of one assay is HT-29. In words: Cytotoxicity against human HT29 cells. It counts as cell-based.
The subject of a further assay is U-251. In words: Cytotoxicity against human U251 cells. It counts as functional, cell-based.
A further assay has as its system A498. In words: Cytotoxicity against human A498 cells. Type of assay: cell-based.
The next assay deals with NCI-H460. Kind of assay: Cytotoxicity against human H460 cells. It counts as cell-based.
For a further assay, the system named is SK-OV-3. Kind of assay: Cytotoxicity against human SKOV3 cells. Type of assay: cell-based.
Another assay concerns CCRF-CEM. Kind of assay: Cytotoxicity against human CEM cells. Type of assay: cell-based.
A further assay deals with SK-MEL-28. Kind of assay: Cytotoxicity against human SK-MEL-28 cells. It counts as cell-based.
Assay [1] is described as follows: Cytotoxicity against human SKBR3 cells. Type of assay: cell-based. As to conditions: SK-BR-3.

For one molecule, IC50 results are on record in ChEMBL document CHEMBL1139859, “Structures of pahayokolides A and B, cyclic peptides from a Lyngbya sp” (J Nat Prod, 2007).

Starred links: 1 amine or outer side, 2 acyl side, 3 side chain; linkers in the order of their positions; H or OH if unused. Positions of bridges follow the written chain, without caps; N, C: chain ends. Non-standard residues stand in square brackets, D forms with d. Residues, ends and D or L forms follow the SMILES beside them. ξ: configuration not given here. X2 = CC(=O)N(C)[C@@H](CC(C)C)C(=O)O[C@@H](CC(O)C(O)CC(C)C)CC(N[*:2])C(O)C(=O)[*:1]; hPhe = N[C@@H](CCc1ccccc1)C(=O)O; X1 = C/C=C(/N[*:1])C(=O)[*:2]; Dhb = C/C=C(\N)C(=O)O; ξT = CC(O)C(N)C(=O)O

Take `C/C=C1\NC(=O)[C@H](Cc2ccccc2)NC(=O)[C@@H]2CCCN2C(=O)CNC(=O)[C@H](CCC(N)=O)NC(=O)C(O)C(C[C@H](CC(O)C(O)CC(C)C)OC(=O)[C@H](CC(C)C)N(C)C(C)=O)NC(=O)[C@@H]2CCCN2C(=O)[C@H](CCc2ccccc2)NC(=O)C(C(C)O)NC(=O)/C(=C\C)NC(=O)[C@H](CO)NC1=O` (stereo partly drawn) [PAHAYOKOLIDES A] (QGPF[Dhb]S[X1][ξT][hPhe]P; linker N-C via X2): the half-inhibitory concentration (IC50) – broadly, the midpoint of a concentration-inhibition curve – is 44.6 µM with HT-29; 13.3 µM with U-251; 2.61 µM with A498; 2.13 µM with NCI-H460; 2.76 µM in the assay on SK-OV-3; 3.27 µM in the assay on CCRF-CEM. Further, the half-inhibitory concentration (IC50) with SK-MEL-28 came out at 5.74 µM; in assay [1], 16.7 µM.
